Target: SSTR4 (Homo sapiens (Human), UniProt P31391)
Experiment: Inhibition of forskolin stimulated cAMP in CHO-K1 cells overexpressing SSTR4
Assay type: cell-based
Conditions: not given
Protocol: Inhibition of Forskolin Stimulated cAMP in Cells Overexpressing SSTR4
This cell-based assay measures the ability of compounds to inhibit forskolin stimulated cAMP in CHO-K1 cells overexpressing SSTR4. CHO-K1 cells overexpressing SSTR4 (CHO-SSTR4) are purchased from DiscoveRx (product code 95-0059C2). The CHO-SSTR4 cells are maintained in F12K media with 10% Fetal Bovine Serum (Hyclone), 1% Pen/Strep (Life Technologies), and 800 μg/mL G418 (Life Technologies). […] The next day, the culture media is removed from the cells and the cells are washed (added then removed) with Kreb's Ringer Buffer (ZenBio, KRB-1000 mL). […] The cells are incubated in […] for 30 minutes at room temperature. Cellular cAMP levels are detected with a HTRF LANCE Ultra cAMP kit (Perkin Elmer, catalog number TRF0264).
The assay is performed in accordance with the manufacturer's instructions. Five μL of diluted Eu-W8044 labeled streptavidin (dilution: 1:50 in cAMP Detection Buffer) is added to each well. Then 5 μL of diluted biotin cAMP (dilution: 1:150 in cAMP Detection Buffer) is added to each well. The plates are covered and allowed to incubate for 60 minutes at room temperature on a shaker. […] The pEC50 values are generated using Activity Base for Screening Data Management.

Sequence of SSTR4 (P31391 whole entry): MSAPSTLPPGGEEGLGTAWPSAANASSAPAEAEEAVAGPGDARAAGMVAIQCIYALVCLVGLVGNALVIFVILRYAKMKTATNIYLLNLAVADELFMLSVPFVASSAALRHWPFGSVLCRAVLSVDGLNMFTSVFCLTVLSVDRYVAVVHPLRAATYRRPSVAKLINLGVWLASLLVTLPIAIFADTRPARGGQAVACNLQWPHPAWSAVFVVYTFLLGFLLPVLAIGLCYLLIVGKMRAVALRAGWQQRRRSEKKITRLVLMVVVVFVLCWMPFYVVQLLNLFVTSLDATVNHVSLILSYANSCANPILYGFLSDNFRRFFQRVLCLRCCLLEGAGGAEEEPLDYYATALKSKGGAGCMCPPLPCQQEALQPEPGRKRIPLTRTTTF

In order of falling “SSTR4 Activity pEC50” value:
1. O=C(N[C@H]1CCNC[C@@H]1F)C(F)(F)COc1ncccc1C1CC1 [Example 198, 3-((3-cyclopropylpyridin-2-yl)oxy)-2,2-difluoro-N-((3S,4S)-3-fluoropiperidin-4-yl)propanamide]  8.2
2. Cc1cccnc1OCC(C)(C)C(=O)N[C@H]1CN(C)CC12CC2 [Example 153, (R)-2,2-dimethyl-N-(5-methyl-5-azaspiro[2.4]heptan-7-yl)-3-((3-methylpyridin-2-yl)oxy)propanamide]  8.1
3. CCc1cccnc1OCC(C)(C)C(=O)N[C@@H]1CCN(C)C1 [Example 86, (R)-3-((3-ethylpyridin-2-yl)oxy)-2,2-dimethyl-N-(1-methylpyrrolidin-3-yl)propanamide]  7.3
4. Cc1ccc(C)c(OCC(C)(C)C(=O)NC2CCN(C)CC2)n1 [Example 83, 3-((3,6-dimethylpyridin-2-yl)oxy)-2,2-dimethyl-N-(1-methylpiperidin-4-yl)propanamide]  7.3
5. Cc1cnc(OCC(C)(C)C(=O)NC2CCN(C)CC2)c(C2CC2)c1 [Example 6, 3-((3-cyclopropyl-5-methylpyridin-2-yl)oxy)-2,2-dimethyl-N-(1-methylpiperidin-4-yl)propanamide]  7.3
6. Cc1cnc(OCC(C)(C)C(=O)N[C@@H]2CCN(C)C2)c(C2CC2)c1 [Example 7, (R)-3-((3-cyclopropyl-5-methylpyridin-2-yl)oxy)-2,2-dimethyl-N-(1-methylpyrrolidin-3-yl)propanamide]  7.2
7. CN1CCC(NC(=O)C(C)(C)COc2nccc3occc23)CC1 [Example 99, 3-(furo[3,2-c]pyridin-4-yloxy)-2,2-dimethyl-N-(1-methylpiperidin-4-yl)propanamide]  7.1
8. Cc1cnc(OCC(C)(C)C(=O)NC2CCN(C)CC2)c(Cl)c1 [Example 82, 3-((3-chloro-5-methylpyridin-2-yl)oxy)-2,2-dimethyl-N-(1-methylpiperidin-4-yl)propanamide]  7.0
9. Cc1ccc(C2CC2)c(OCC(C)(C)C(=O)N[C@@H]2CCN(C)C2)n1 [Example 10, (R)-3-((3-cyclopropyl-6-methylpyridin-2-yl)oxy)-2,2-dimethyl-N-(1-methylpyrrolidin-3-yl)propanamide]  6.8
10. CN1CCC(NC(=O)C2(COc3ncccc3C3CC3)CCC2)CC1 [Example 89, 1-(((3-cyclopropylpyridin-2-yl)oxy)methyl)-N-(1-methylpiperidin-4-yl)cyclobutane-1-carboxamide]  6.8
11. Cc1cccc(C#N)c1OCC(C)(C)C(=O)NC1CCN(C)CC1 [Example 77, 3-(2-cyano-6-methylphenoxy)-2,2-dimethyl-N-(1-methylpiperidin-4-yl)propanamide]  6.4
12. CN(C(=O)C(C)(C)COc1ncccc1C(F)(F)F)[C@H]1CCNC[C@@H]1F [Example 160, N-((3S,4S)-3-fluoropiperidin-4-yl)-N,2,2-trimethyl-3-((3-(trifluoromethyl)pyridin-2-yl)oxy)propanamide]  6.4
13. Cc1cnccc1OCC(C)(C)C(=O)NC1CCN(C)CC1 [Example 50, 2,2-dimethyl-N-(1-methylpiperidin-4-yl)-3-((3-methylpyridin-4-yl)oxy)propanamide]  6.2
14. CN1CCC(NC(=O)C(C)(C)COc2nccnc2C2CC2)CC1 [Example 80, 3-((3-cyclopropylpyrazin-2-yl)oxy)-2,2-dimethyl-N-(1-methylpiperidin-4-yl)propanamide]  6.1
15. CN1CC[C@H](CNC(=O)C(C)(C)COc2ncccc2C(F)(F)F)C1 [Example 36, (R)-2,2-dimethyl-N-((1-methylpyrrolidin-3-yl)methyl)-3-((3-(trifluoromethyl)pyridin-2-yl)oxy)propanamide]  6.1
16. Cc1nc(Cl)ccc1OCC(C)(C)C(=O)NC1CCN(C)CC1 [Example 46, 3-((6-chloro-2-methylpyridin-3-yl)oxy)-2,2-dimethyl-N-(1-methylpiperidin-4-yl)propanamide]  5.4

Same assay, conditions: read-out: SSTR4 Activity pEC50 (converted)

In order of falling EC50:
1. Cc1ccc([C@@H]2CN(CC#N)C[C@H]2NC(=O)C(C)(C)COc2ncccc2C(F)(F)F)cn1 (relative stereo) [Example 103, trans-N-(1-(cyanomethyl)-4-(6-methylpyridin-3-yl)pyrrolidin-3-yl)-2,2-dimethyl-3-((3-(trifluoromethyl)pyridin-2-yl)oxy)propanamide]  631 nM
2. CC(C)(COc1ncccc1C(F)(F)F)C(=O)N[C@@H]1CNC[C@H]1F (relative stereo) [Example 130, trans-N-(4-fluoropyrrolidin-3-yl)-2,2-dimethyl-3-((3-(trifluoromethyl)pyridin-2-yl)oxy)propanamide]  251 nM
3. CN1CCC(NC(=O)C(C)(C)COc2ncccc2C(F)(F)F)C12CCC2 (stereo not shown) [Example 151, 2,2-dimethyl-N-(5-methyl-5-azaspiro[3.4]octan-8-yl)-3-((3-(trifluoromethyl)pyridin-2-yl)oxy)propanamide]  158 nM
4. C[C@@H]1CN(C)CC[C@@H]1NC(=O)C(C)(C)COc1ncccc1C(F)(F)F (racemic) [Example 12, cis-N-(1,3-dimethylpiperidin-4-yl)-2,2-dimethyl-3-((3-(trifluoromethyl)pyridin-2-yl)oxy)propanamide]  126 nM
5. Cc1ccc([C@@H]2CN(C)C[C@H]2NC(=O)C(C)(C)COc2ncccc2C)cn1 (relative stereo) [Example 60, trans-2,2-dimethyl-N-(1-methyl-4-(6-methylpyridin-3-yl)pyrrolidin-3-yl)-3-((3-methylpyridin-2-yl)oxy)propanamide]  79.4 nM
6. C[C@@H]1CN(C)CC[C@@H]1NC(=O)C(C)(C)COc1ncccc1OC(F)(F)F (racemic) [Example 14, cis-N-(1,3-dimethylpiperidin-4-yl)-2,2-dimethyl-3-((3-(trifluoromethoxy)pyridin-2-yl)oxy)propanamide]  79.4 nM
7. Cc1cccnc1OCC(C)(C)C(=O)N[C@@H]1CN(C)C[C@H]1c1ccc(C(F)(F)F)nc1 (relative stereo) [Example 57, trans-2,2-dimethyl-N-(1-methyl-4-(6-(trifluoromethyl)pyridin-3-yl)pyrrolidin-3-yl)-3-((3-methylpyridin-2-yl)oxy)propanamide]  63.1 nM
8. CN1C[C@@H](NC(=O)C(C)(C)COc2ncccc2C(F)(F)F)[C@H](c2ccc(C(F)(F)F)nc2)C1 (relative stereo) [Example 59, trans-2,2-dimethyl-N-(1-methyl-4-(6-(trifluoromethyl)pyridin-3-yl)pyrrolidin-3-yl)-3-((3-(trifluoromethyl)pyridin-2-yl)oxy)propanamide]  31.6 nM
9. CN1C[C@@H](NC(=O)C(C)(C)COc2ncccc2C(F)(F)F)[C@H](c2ccc(Cl)cc2)C1 (relative stereo) [Example 56, trans-N-(4-(4-chlorophenyl)-1-methylpyrrolidin-3-yl)-2,2-dimethyl-3-((3-(trifluoromethyl)pyridin-2-yl)oxy)propanamide]  25.1 nM

Source: patent US11045457B2, “Piperidinyl-3-(aryloxy)propanamides and propanoates” (priority 2018, dated 2021)
